Calls of active or inactive are those of the source. Rule as the data show it, for most assays here: actives have a measured EC50 and inactives only a lower limit.
Experiments:
[1] = luciferase reporter signal suppression in cells – H4 neuroglioma cells, luminescence, dose response (AID 1990); assay type: functional, cell-based
[2] = Luminescence Cell-Based Dose Response HTS to Identify Inhibitors of 5'UTR Stem-Loop Driven Prion Protein mRNA Translation in H4 Neuroglioblastoma Cells. [Related pubchem assays: 1827 (Project Summary), 1813 (Primary HTS)]; assay type: functional
[3] = alpha-synuclein stem-loop luciferase translation blockers – H4 neuroglioma cells, luminescence, confirmation (AID 1988); assay type: functional, cell-based
[4] = test system: Streptococcus sp. 'group A'; assay: Streptococcus pyogenes SK(-)GAS viability under kanamycin – luminescence, BacTiterGlo, confirmation, counter-screen for streptokinase expression inhibitor project, dose response (AID 1900); assay type: functional, organism-based
Streptokinase A = target: T1, Streptokinase A (Streptococcus pyogenes serotype M1, UniProt P10520); assay: viability-normalized secreted streptokinase activity reduction – plasminogen activation absorbance, OD405, dose response (AID 1914); assay type: functional, Streptococcus pyogenes M1 GAS;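 also: secreted streptokinase activity via plasminogen activation per viability signal from cell pellet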
T1 sequence (P10520 whole entry): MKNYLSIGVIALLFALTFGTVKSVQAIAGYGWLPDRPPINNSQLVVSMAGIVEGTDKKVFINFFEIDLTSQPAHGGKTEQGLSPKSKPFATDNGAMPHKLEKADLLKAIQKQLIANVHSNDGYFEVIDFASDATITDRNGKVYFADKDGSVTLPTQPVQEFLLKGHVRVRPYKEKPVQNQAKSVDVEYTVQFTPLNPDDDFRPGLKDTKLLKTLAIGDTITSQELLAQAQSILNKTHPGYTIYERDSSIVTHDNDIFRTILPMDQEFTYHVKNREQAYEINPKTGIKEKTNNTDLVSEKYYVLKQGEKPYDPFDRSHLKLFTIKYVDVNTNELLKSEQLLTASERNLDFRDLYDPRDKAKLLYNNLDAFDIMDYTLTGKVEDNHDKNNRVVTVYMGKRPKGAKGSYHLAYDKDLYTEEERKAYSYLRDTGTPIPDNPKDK

[5] = Trypanosoma cruzi growth suppression in host cells – NIH3T3 host cells, beta-gal luminescence, confirmation (AID 2044); assay type: functional, cell-based;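 also: intracellular parasites grown in NIH/3T3 mouse fibroblasts as host cells; luminescent beta-galactosidase reporter signal from transgenic T. cruzi replicating inside host cells; inhibitors lower the luminescence signal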
[6] = NIH3T3 cell viability loss – ATP luminescence, mouse fibroblasts, counter-screen, dose response (AID 2010); assay type: functional, cell-based;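 also: cells exposed to compound for about 90 hours before reading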
Streptococcus = assay: GAS UMAA2166 growth inhibition – luminescence, BacTiterGlo, counter-screen for streptokinase expression inhibitor project, dose response (AID 1915); assay type: functional, organism-based;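 also: potency for reduction of bacterial viability or growth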
INS1 = assay: INS-1E survival protection against cytokine death – cell-based, luminescence, retest, dose response (AID 449756); assay type: functional; details: Rattus norvegicus;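 also: cell death triggered by IL-1 beta plus TNF-alpha plus IFN-gamma mixture; protective hits raise ATP signal compared with cytokine alone wells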
[7] = target: T2, Heat shock factor protein 1 (Mus musculus, UniProt P38532); assay: enhancement of HSF1-driven luciferase signal – cell-based, NIH3T3, luminescence, dose retest, confirmation (AID 435004); assay type: functional;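 also: stress induced by proteasome inhibitor MG132 added 30 min after compound; luciferase reporter driven by HSF1 response element in NIH3T3 cells; actives raise luminescence as potentiators of the MG132 stress response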
T2 sequence (P38532 whole entry): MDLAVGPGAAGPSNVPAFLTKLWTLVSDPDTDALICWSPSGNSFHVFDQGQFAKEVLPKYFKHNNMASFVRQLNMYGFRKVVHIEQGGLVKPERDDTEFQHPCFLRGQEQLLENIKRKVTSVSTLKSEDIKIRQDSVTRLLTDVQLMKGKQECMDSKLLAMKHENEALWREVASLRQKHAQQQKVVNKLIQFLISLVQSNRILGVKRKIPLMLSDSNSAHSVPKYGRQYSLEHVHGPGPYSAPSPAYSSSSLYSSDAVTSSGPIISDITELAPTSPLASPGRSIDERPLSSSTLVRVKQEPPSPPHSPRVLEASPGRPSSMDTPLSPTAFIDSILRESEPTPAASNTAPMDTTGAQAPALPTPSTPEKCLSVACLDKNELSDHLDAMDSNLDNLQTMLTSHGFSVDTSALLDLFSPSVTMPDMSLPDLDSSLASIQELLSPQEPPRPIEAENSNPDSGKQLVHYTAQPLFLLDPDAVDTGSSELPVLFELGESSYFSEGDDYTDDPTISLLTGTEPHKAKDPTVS

[8] = Luminescence Cell-Based Dose Retest to Confirm Inhibitors of Cancer Stem Cells. [Related pubchem assays (depositor defined):AID2717, AID2721]; assay type: functional; details: Homo sapiens
Cytochrome P450 2D6 = Cytochrome P450 2D6 (Homo sapiens, UniProt P10635);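 also: CYP2D6 member of a cytochrome P450 panel assay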
Cytochrome P450 3A4 = Cytochrome P450 3A4 (Homo sapiens, UniProt P08684);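 also: CYP3A4 tested as one member of a cytochrome P450 panel screen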
[9] = target: Luciferin 4-monooxygenase (Photinus pyralis, UniProt P08659); assay: inhibition of purified Photinus pyralis luciferase – biochemical, luminescence, dose response (AID 1891)
[10] = Luminescence Cell-Based Dose Confirmation HTS to Identify Inhibitors of Platelet Dense Granule Release. [Related pubchem assays: 1663 (Primary HTS), 1678 (Summary of Project)]; assay type: functional
Cytochrome P450 1A2 = target: T3, Cytochrome P450 1A2 (Homo sapiens, UniProt P05177);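 also: PubChem cytochrome P450 panel assay, CYP1A2 panel member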
T3 sequence (P05177 whole entry): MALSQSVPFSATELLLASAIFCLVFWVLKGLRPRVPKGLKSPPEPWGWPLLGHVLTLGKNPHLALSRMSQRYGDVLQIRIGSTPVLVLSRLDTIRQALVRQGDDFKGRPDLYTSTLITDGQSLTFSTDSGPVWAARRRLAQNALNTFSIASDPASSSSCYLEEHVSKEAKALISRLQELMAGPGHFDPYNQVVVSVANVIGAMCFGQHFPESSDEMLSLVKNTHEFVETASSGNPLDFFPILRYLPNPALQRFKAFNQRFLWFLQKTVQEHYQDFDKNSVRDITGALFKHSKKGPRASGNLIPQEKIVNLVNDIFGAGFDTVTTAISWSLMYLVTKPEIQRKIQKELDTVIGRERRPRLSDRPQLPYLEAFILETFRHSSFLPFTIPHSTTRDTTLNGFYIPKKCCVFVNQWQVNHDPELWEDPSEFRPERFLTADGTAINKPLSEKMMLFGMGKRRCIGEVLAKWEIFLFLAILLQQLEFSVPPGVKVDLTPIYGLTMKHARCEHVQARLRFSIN

[11] = target: T4, Corticotropin-releasing factor receptor 2/Corticotropin-releasing factor-binding protein (Homo sapiens, UniProt P24387+Q13324); assay: Dose Response confirmation of uHTS hits for small molecule antagonists of the CRF-binding protein and CRF-R2 receptor complex.; assay type: functional; details: read-out: IC50_Mean
T4 sequence (Q13324 whole entry): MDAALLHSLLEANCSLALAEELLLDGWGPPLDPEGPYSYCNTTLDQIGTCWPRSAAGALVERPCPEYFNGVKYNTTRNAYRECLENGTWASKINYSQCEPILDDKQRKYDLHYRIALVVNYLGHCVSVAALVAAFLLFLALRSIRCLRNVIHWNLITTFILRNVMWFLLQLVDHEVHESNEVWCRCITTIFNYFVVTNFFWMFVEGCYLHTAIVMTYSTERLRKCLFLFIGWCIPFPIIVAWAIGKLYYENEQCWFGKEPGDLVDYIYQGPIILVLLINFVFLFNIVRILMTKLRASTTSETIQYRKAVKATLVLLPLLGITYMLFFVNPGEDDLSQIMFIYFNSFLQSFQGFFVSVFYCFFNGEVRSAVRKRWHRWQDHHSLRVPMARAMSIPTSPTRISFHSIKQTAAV
T4 sequence (P24387 whole entry): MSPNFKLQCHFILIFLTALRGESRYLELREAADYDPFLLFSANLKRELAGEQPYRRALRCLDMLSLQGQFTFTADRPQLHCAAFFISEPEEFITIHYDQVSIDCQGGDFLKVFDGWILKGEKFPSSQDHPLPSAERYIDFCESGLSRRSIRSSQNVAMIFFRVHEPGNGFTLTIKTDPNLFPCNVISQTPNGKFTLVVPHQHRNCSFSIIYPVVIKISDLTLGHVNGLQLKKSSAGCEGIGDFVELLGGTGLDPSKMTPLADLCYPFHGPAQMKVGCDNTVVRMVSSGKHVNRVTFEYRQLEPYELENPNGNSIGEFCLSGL

[12] = target: T4, Corticotropin-releasing factor receptor 2/Corticotropin-releasing factor-binding protein; assay: activators of CRF receptor 2 with binding protein – uHTS hits, confirmation (AID 602473); assay type: functional; details: read-out: EC50_Mean

Sequence of Cytochrome P450 3A4 (P08684 whole entry): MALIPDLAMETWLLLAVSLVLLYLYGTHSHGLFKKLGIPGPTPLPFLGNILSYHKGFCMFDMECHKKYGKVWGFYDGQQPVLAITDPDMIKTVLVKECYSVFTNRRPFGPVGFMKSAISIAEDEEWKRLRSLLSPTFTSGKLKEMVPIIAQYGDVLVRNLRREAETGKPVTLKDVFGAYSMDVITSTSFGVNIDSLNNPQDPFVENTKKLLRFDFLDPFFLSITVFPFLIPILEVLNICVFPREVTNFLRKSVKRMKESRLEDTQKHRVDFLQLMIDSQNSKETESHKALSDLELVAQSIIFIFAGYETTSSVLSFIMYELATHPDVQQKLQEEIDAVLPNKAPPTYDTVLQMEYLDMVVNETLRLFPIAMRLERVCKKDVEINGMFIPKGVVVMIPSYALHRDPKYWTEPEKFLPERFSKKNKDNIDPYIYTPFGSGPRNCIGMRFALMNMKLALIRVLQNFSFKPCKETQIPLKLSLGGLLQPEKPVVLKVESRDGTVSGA
Sequence of Cytochrome P450 2D6 (P10635 whole entry): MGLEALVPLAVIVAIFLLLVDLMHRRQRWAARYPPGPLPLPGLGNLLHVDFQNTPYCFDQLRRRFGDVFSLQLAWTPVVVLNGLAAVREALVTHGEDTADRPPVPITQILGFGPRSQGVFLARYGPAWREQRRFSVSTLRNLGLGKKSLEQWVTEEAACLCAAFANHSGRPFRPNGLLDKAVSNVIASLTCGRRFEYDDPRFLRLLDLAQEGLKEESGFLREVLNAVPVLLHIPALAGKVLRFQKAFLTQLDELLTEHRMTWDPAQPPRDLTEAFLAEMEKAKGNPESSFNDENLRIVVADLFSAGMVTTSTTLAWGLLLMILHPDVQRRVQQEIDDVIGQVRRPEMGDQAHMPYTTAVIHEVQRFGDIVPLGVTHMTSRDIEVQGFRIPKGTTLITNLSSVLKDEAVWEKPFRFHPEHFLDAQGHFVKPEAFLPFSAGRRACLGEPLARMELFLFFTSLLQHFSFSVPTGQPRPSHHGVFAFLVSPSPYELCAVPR
Sequence of Luciferin 4-monooxygenase (P08659 whole entry): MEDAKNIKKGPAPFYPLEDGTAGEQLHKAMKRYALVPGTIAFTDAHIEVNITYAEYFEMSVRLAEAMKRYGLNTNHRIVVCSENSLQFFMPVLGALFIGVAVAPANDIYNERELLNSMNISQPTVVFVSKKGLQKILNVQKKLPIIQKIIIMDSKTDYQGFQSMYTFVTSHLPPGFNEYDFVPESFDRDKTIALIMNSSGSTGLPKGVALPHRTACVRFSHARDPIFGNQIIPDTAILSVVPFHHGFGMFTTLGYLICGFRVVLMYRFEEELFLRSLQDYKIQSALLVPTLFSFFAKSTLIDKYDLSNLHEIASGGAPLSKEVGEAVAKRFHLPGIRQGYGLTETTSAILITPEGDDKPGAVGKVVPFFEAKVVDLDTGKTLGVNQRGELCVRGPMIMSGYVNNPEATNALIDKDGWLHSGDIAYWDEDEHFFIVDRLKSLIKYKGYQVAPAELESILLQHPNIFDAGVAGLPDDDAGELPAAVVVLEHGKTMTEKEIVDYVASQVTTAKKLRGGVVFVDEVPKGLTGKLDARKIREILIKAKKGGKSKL

Cc1nc(O)nc(O)c1/C=C/C(=O)OCC(C)C
EC50 [1]: 22.7 µM (active) | EC50 [2]: > 120 µM (not active) | EC50 [3]: 15.5 µM (active)

CCCCNc1c(-c2ccc(SC3CCCCC3)cc2)nc2ccccn12
EC50 [4]: 8.18 µM (active) | EC50 (Streptokinase A): > 150 µM (not active) | EC50 [5]: 1.2 µM (active) | EC50 [6]: > 30 µM (not active) | EC50 (Streptococcus): 8.23 µM (active) | AC50 (INS1): 5.33 µM (active)

Cc1ccc(-n2nc3c(N4CCC(C(=O)NCCc5ccccc5C)CC4)nnc(C)c3c2C)cc1
EC50 [1]: 9.7 µM (active) | EC50 [2]: 39.8 µM (active) | EC50 [3]: > 120 µM (not active) | EC50 [5]: 0.941 µM (active) | EC50 [6]: 6.26 µM (active)

O=C1CC(c2cccc(Cl)c2)c2cc3c(cc2N1)CCC3 (stereo not given)
EC50 [1]: > 120 µM (not active) | EC50 [2]: 11.9 µM (active) | EC50 [3]: 6.74 µM (active)

CC(=O)NCCC(=O)Nc1nc(-c2cccs2)c(-c2cccs2)s1
EC50 [7]: > 260 µM (inactive)

Oc1cccc(-c2nc3c4c(ncn3n2)-c2ccccc2CC42CCCC2)c1
AC50 [8]: 1.16 µM (active) | AC50 (Cytochrome P450 2D6): 0.631 µM (inconclusive) | AC50 (Cytochrome P450 3A4): 22.4 µM (inconclusive)

Cn1nnc2c[n+](CC(=O)c3ccc4ccccc4c3)cc(Br)c21
EC50 [7]: 12.2 µM (active)

COCCN1CN=C(Nc2nc3ccccc3o2)NC1
EC50 [9]: > 112 µM (not active) | EC50 [10]: > 112 µM (not active) | AC50 (Cytochrome P450 1A2): 22.4 µM (inconclusive)

CCOC(=O)C1CCCN(C(=O)c2ccc(Cl)c(S(=O)(=O)N3CCCCC3)c2)C1 (stereo not given)
EC50 [7]: > 260 µM (inactive) | IC50 [11]: > 47.1 µM (inactive) | EC50 [12]: > 53 µM (inactive)

O=[N+]([O-])CC(c1ccccc1)c1c(O)n[nH]c1-c1ccccc1O (stereo not given)
EC50 [7]: 131 µM (active)

O=C1c2c(Br)c(Br)c(Br)c(Br)c2C(=O)N1c1ccccn1
AC50 [8]: 1.95 µM (active)

O=C(Nc1cccc(-c2csc(Nc3cccc(C(F)(F)F)c3)n2)c1)c1ccccc1
EC50 [4]: 4.47 µM (active) | EC50 (Streptokinase A): > 150 µM (not active) | EC50 (Streptococcus): 6.3 µM (active) | AC50 [8]: 1.6 µM (active)

Cc1cc(-c2csc3ncnc(S)c23)cc(C)c1C
EC50 [4]: 1.31 µM (active) | EC50 (Streptococcus): 4.06 µM (active) | AC50 [8]: 12.8 µM (active)

COc1nc(N2CCCCCC2)nc(N2CCCCCC2)n1
AC50 [8]: 6.21 µM (active)

COC(=O)N1C(=O)[C@@](c2ccccc2)(C2CCCC2)N1C(=O)OC
EC50 [7]: 14.9 µM (active)

COC1=C(Nc2ccccc2OC)C(=O)c2ccccc2C1=O
AC50 (INS1): 38.3 µM (active)

From ChEMBL document CHEMBL1201862, “PubChem BioAssay data set” (2004)
